Data from patent US20090088482A1, “Compositions and Methods For Treating Heart Failure” (The Trustees Of Columbia University In The City New York, priority 2003, published 2009).

How the values were obtained:
Format in all cases: in vivo, Sprague-Dawley rats
[1] = system: rats with HF induced by LAD ligation; assay: Body weight and heart weight in LAD ligation ischemic HF rats (Example 5); conditions: mean ± SD, 9 weeks oral therapy; for Heart Wt: HF 2.16 ± 0.33, Sham 1.72 ± 0.09; for % Δ Weight (percentage change in pre-treatment to post-treatment weights): clenbuterol 1 mg/kg/day, metoprolol 200 mg/kg/day, HF 33.8 ± 4.79, Sham 76.1 ± 19.3
Protocol: All studies were performed in compliance with the Guide for the Care and Use of Laboratory Animals (NRC 1996) and were approved by the Institutional Animal Care and Use Committee of Columbia University. Sprague-Dawley rats (Charles River Laboratories, Wilmington, Mass.) weighing 250 to 300 g were used for all experiments. Food and water were provided ad libitum, with rats housed in a light- and temperature-controlled room over the 12-week study period.
(§1) After the induction of general anesthesia with the use of intraperitoneal ketamine (75 mg/kg; Fort Dodge Animal Health, Fort Dodge, Iowa) and xylazine (5 mg/kg; Lloyd Laboratories, Shenandoah, Iowa), endotracheal intubation with a 16-guage angiocathether was performed. Rats were supported by a small animal ventilator (Harvard Apparatus, Holliston, Mass.). After performing a left thoracotomy, a sham operation (pericardiectomy only) or left anterior descending artery (LAD) ligation with a 7-0 polypropylene suture was performed. Subsequently, a chest tube (16-guage angiocathether) was placed in the left pleural space prior to closing the incision in three layers. Finally, the chest tube was used to aspirate the pleural cavity and removed after extubation.
(§2) A total of 69 rats were used in this study. LAD ligation surgery was performed in 60 rats, of which 37 (62%) survived three weeks post-surgery. Another 9 rats underwent a sham operation (group Sham), with 7 (78%) survivors. Three weeks post-operatively, echocardiography was performed to establish the baseline level of HF (as measured by fractional shortening). The LAD ligation rats were divided into 4 treatment groups matched for the degree of HF and were randomly assigned to one of the following therapies for 9 additional weeks: (1) rats receiving no therapy (group HF, n=9); (2) rats receiving high-dose clenbuterol at 1 mg/kg/day (group Clen, n=9); (3) rats receiving high-dose metoprolol at 200 mg/kg/day (group Meto, n=9); or (4) rats receiving concurrent high-dose clenbuterol at 1 mg/kg/day and high-dose metoprolol therapy at 200 mg/kg/day (group Clen+Meto, n=10).
Clenbuterol (ICN Biomedicals, Aurora, Ohio) was sonicated and subsequently dissolved in the drinking water. Metoprolol (Sigma-Aldrich, St. Louis, Mo.) was dissolved in the drinking water either alone or in combination with clenbuterol for the Clen+Meto group. The concentrations of clenbuterol and metoprolol were varied to keep the study drug dose delivered within a narrow therapeutic window based on daily water consumption. […]
Body weight was measured pre-surgery and 3 and 12 weeks post-surgery. Heart weight was measured immediately after the heart was excised. The ratio of body weight to heart weight was subsequently calculated.

[2] = system: rats with HF induced by LAD ligation; assay: Hemodynamic measurements (Millar catheter) in LAD ligation ischemic HF rats (Example 5); conditions: mean ± SD, after 9 weeks oral therapy; for MAP: HF 47.2 ± 8.85, Sham 39.8 ± 5.56; for LVSP: HF 113 ± 10.3, Sham 116 ± 17.3; for HR: HF 302 ± 19.1, Sham 291 ± 52.2; for Maximum dP/dt: HF 4609 ± 583, Sham 6700 ± 1706; for Minimum dP/dt: HF −3854 ± 563, Sham −6458 ± 1799
Protocol: as §1
as §2, with “LAD ligation surgery was performed in 60 rats, of which 37 (62%) survived three weeks post-surgery. Another 9 rats underwent a sham operation (group Sham), with 7 (78%) survivors.” left out
Clenbuterol (ICN Biomedicals, Aurora, Ohio) was sonicated and subsequently dissolved in the drinking water. Metoprolol (Sigma-Aldrich, St. Louis, Mo.) was dissolved in the drinking water either alone or in combination with clenbuterol for the Clen+Meto group. The concentrations of clenbuterol and metoprolol were varied to keep the study drug dose delivered within a narrow therapeutic window based on daily water consumption. […] The treated drinking water was made fresh every 48-72 hours. Oral pharmacotherapy was continued for a total of 9 weeks.
In the terminal experiments 12 weeks post-surgery, the rats were anesthetized with inhaled isoflurane mixed with oxygen. A 2-French Millar catheter (Millar Instruments, Houston, Tex.) was inserted into the right carotid artery and pressure measurements collected and saved as the catheter was advanced into the left ventricle. The heart was quickly arrested in diastole and excised. Hearts were subsequently weighed and used for the ex vivo determination of LV end-diastolic pressure-volume relationships (EDPVR). Using Chart 4 (version 4.2.4, ADInstruments, Colorado Springs, Colo.), left ventricular end-diastolic pressure (LVEDP), left ventricular systolic pressure (LVSP), mean aortic pressure (MAoP), heart rate, and maximum and minimum LV dP/dt (dP/dtmax and dP/dtmin) were later obtained from stored hemodynamic recordings by a single individual (S.X.), who was blinded to animals' group assignments.

[3] = system: myocytes (TUNEL, 8-oxoG, MYH, OGG1 staining); assay: Quantitative immunohistochemistry staining of apoptosis, DNA damage and DNA repair markers (Example 5); conditions: mean ± SD; for 8-oxoG: DNA damage product, HF 18 ± 4, Sham 0.5 ± 0.1; for OGG1: DNA repair marker, HF 0.5 ± 0.1, Sham 0.2 ± 0.1; for TUNEL: percentage of myocytes with nuclear staining, HF 21 ± 4, Sham 0.5 ± 0.1; for MYH (score): score 0 = 0%, 1 = 0-15%, 2 = 15-30%, 3 = 30-50%, 4 = >50% positive, HF 1.4 ± 0.5, Sham 0.6 ± 0.2
Protocol: as §2
A short-axis section of the heart at the point of maximal infarction was fixed in 4% paraformaldehyde solution for 12 hours. Sections were then embedded in paraffin and 5 μm slices used for trichrome staining. The infarct size was determined as a percentage of the LV circumference under light microscopy by a single individual (S.X.) blinded to group assignment. The remaining heart tissue was flash-frozen in liquid nitrogen and stored at −80° C. for Western blot analysis.
Histological sections (5 μm thick) were used to perform immunohistochemistry for: terminal deoxynucleotidyltransferase end labeling (TUNEL; apoptosis marker), 8-oxoG (DNA damage product), MYH (DNA mismatch repair enzyme), and OGG1 (DNA base excision repair enzyme). The percentage of myocytes with nuclear staining was quantified in a blinded manner. Because OGG1 is found both in the nucleus and cytoplasm, a scoring system was utilized to semi-quantitatively describe the staining observed: 0=no staining; 1=0 to 15% staining; 2=15 to 30% staining; 3=30 to 50% staining; and 4=>50% staining of the nucleus and cytoplasm.

SMILES: CC(C)(C)NCC(O)c1cc(Cl)c(N)c(Cl)c1 (stereo not shown) [Clen, clenbuterol]
- Heart Wt [1]: 2.64 ± 0.41 § † gm
- % Δ Weight (percentage change in pre-treatment to post-treatment weights) [1]: 49.9 ± 7.18 † %
- MAP [2]: 44.2 ± 6.06 mmHg
- LVSP [2]: 109 ± 10.7 mmHg
- HR [2]: 281 ± 11.2 bpm
- Maximum dP/dt [2]: 4933 ± 596 mmHg/s
- Minimum dP/dt [2]: 3901 ± 694 mmHg/s
- 8-oxoG [3]: 10 ± 2 † %
- OGG1 [3]: 8.2 ± 2.2 † %
- TUNEL [3]: 11 ± 3 † %
- MYH (score) [3]: 2.8 ± 0.5 † score

SMILES: COCCc1ccc(OCC(O)CNC(C)C)cc1 (stereo not shown) [Meto, metoprolol]
- Heart Wt [1]: 2.17 ± 0.34 gm
- % Δ Weight (percentage change in pre-treatment to post-treatment weights) [1]: 32.3 ± 7.16 %
- MAP [2]: 42.7 ± 5.38 mmHg
- LVSP [2]: 107 ± 9.27 mmHg
- HR [2]: 243 ± 19.4 bpm
- Maximum dP/dt [2]: 5462 ± 541 mmHg/s
- Minimum dP/dt [2]: −4032 ± 830 mmHg/s
- 8-oxoG [3]: 12 ± 3 † %
- OGG1 [3]: 6.4 ± 1.5 † %
- TUNEL [3]: 12 ± 4 † %
- MYH (score) [3]: 2.6 ± 0.4 † score
